From EP0978561A1, “Antisense oligonucleotides for the inhibition of VEGF expression” (Hoechst Marion Roussel Deutschland GmbH, priority 1998, dated 2000)
Like-named read-outs stand apart in the source and are kept apart here.

Test system: human VEGF
Assay: VEGF protein assay: ELISA of secreted VEGF in conditioned medium of oligonucleotide-treated cells
Type: cell-based
Details: cells treated 5 hours with oligonucleotide and Cellfectin, secreted VEGF in supernatant, 100% = Cellfectin without oligonucleotide, read-out: IC50 for VEGF secretion
Method: The cells are plated in 96-well plates at 30,000 cells/well, 150 ul medium per well (medium depends on cell type). The next day, Cellfectin (Gibco-BRL) is diluted to 400 ug/ml in water (solution A). Oligonucleotides are diluted to 40X the final desired concentration in water (solution B). Equal amounts of solutions A and B are mixed, to give the desired volume of a solution that is 200 µg/ml Cellfectin and 20X oligonucleotide, and the mixture left at room temperature for 30 minutes. After 30 minutes, 19 volumes of Optimem (Gibco-BRL) is added to give a final solution that is 10 µg/ml Cellfectin and 1X oligonucleotide (solution C). Medium is removed from the cells, the wells are washed 2X with Optimem, and 150 µl solution C added to each well. The plates are then returned to the incubator (37°C, 5% CO2). After 5 hours, the Cellfectin/oligonucleotide solution is removed and replaced with 150 µl of regular growth medium. VEGF protein and mRNA assays are performed beginning 19 hours later.
Samples (from example 4) of conditioned medium are taken from the desired wells and assayed for the presence of human VEGF using the human VEGF ELISA kit from R & D systems.The assay protocol is the one provided with the kit.
The IC50s are calculated based on a value of 100% for the amount of VEGF protein or mRNA in cells treated with Cellfectin but no oligonucleotide.

Substance: 5'-p*(2'5'-Co Co Co Co)(teg) G*C*G C*T G A*T*A G A*C*A T*C*C*A*T*G -3' (GCGCTGATAGACATCCATG; chemistry not fully specified) [ON 53, 2'5(Co)4-conjugate all-2'-O-methyl]
- IC50: 1.5 µM

Substance: 5'-p*-(2'5'-rA*rA*rA*rA)*(teg) G*C*G C*T G A*T*A G A*C*A T*C*C*A*T*G -3' (GCGCTGATAGACATCCATG; 5'-phosphate 2'5' rA4, teg linker, all-2'-O-methyl, chemistry not fully specified) [ON 54, 2'5'(rA)4-conjugate all-2'-O-methyl]
- IC50 (listed as ON54): ~0.23 µM
- IC50: 0.23 µM
